Source: the NIST ThermoML archive (doi:10.1016/j.tca.2014.06.026)

Experiment: xn = mol fraction of the nth substance listed
Settings: 101 kPa, Liquid; for speed of sound: Frequency=2 MHz, Sing-around technique in a fixed-path interferometer; for viscosity: Oscillating disk viscometry; for mass density: Vibrating tube method

NC1CCCCC1 [cyclohexylamine] + CN1CCCC1=O
Settings | mass density [kg/m3] | speed of sound [m/s] | viscosity [mPa·s]
303.15 K, x2 = 0 | 857.71 | 1397.8 | 1.797
303.15 K, x2 = 0.1171 | 877.49 | 1424.2 | 1.791
303.15 K, x2 = 0.2299 | 896.91 | 1448.4 | 1.789
303.15 K, x2 = 0.3385 | 915.83 | 1469.1 | 1.784
303.15 K, x2 = 0.4432 | 933.86 | 1487.8 | 1.773
303.15 K, x2 = 0.5442 | 950.84 | 1504.3 | 1.754
303.15 K, x2 = 0.6417 | 966.69 | 1518.1 | 1.727
303.15 K, x2 = 0.7358 | 981.66 | 1530.2 | 1.693
303.15 K, x2 = 0.8268 | 995.81 | 1540.3 | 1.648
303.15 K, x2 = 0.9149 | 1009.73 | 1548.2 | 1.592
308.15 K, x2 = 0 | 853.14 | 1379.2 | 1.704
308.15 K, x2 = 0.1171 | 873.25 | 1406.8 | 1.69
308.15 K, x2 = 0.2299 | 892.71 | 1429.4 | 1.678
308.15 K, x2 = 0.3385 | 911.69 | 1449.1 | 1.668
308.15 K, x2 = 0.4432 | 929.76 | 1467.1 | 1.655
308.15 K, x2 = 0.5442 | 946.83 | 1483.1 | 1.636
308.15 K, x2 = 0.6417 | 962.86 | 1496.5 | 1.607
308.15 K, x2 = 0.7358 | 977.92 | 1507.7 | 1.569
308.15 K, x2 = 0.8268 | 992.5 | 1517.2 | 1.522
308.15 K, x2 = 0.9149 | 1006.41 | 1524.6 | 1.47
313.15 K, x2 = 0 | 848.61 | 1360.6 | 1.617
313.15 K, x2 = 0.1171 | 869.06 | 1389.2 | 1.6
313.15 K, x2 = 0.2299 | 888.52 | 1411.4 | 1.588
313.15 K, x2 = 0.3385 | 907.42 | 1430.5 | 1.575
313.15 K, x2 = 0.4432 | 925.48 | 1447.6 | 1.56
313.15 K, x2 = 0.5442 | 942.64 | 1462.5 | 1.541
313.15 K, x2 = 0.6417 | 958.87 | 1475.1 | 1.514
313.15 K, x2 = 0.7358 | 974.13 | 1485.7 | 1.477
313.15 K, x2 = 0.8268 | 988.74 | 1494.6 | 1.432
313.15 K, x2 = 0.9149 | 1002.53 | 1500.8 | 1.38
318.15 K, x2 = 0 | 844.07 | 1342 | 1.506
318.15 K, x2 = 0.1171 | 864.89 | 1371.7 | 1.484
318.15 K, x2 = 0.2299 | 884.43 | 1393.8 | 1.463
318.15 K, x2 = 0.3385 | 903.34 | 1412.2 | 1.442
318.15 K, x2 = 0.4432 | 921.45 | 1428.7 | 1.422
318.15 K, x2 = 0.5442 | 938.47 | 1443.2 | 1.401
318.15 K, x2 = 0.6417 | 954.68 | 1455.4 | 1.375
318.15 K, x2 = 0.7358 | 970.14 | 1465.4 | 1.341
318.15 K, x2 = 0.8268 | 984.78 | 1473.6 | 1.298
318.15 K, x2 = 0.9149 | 998.55 | 1477.8 | 1.251

OC1CCCCC1 [cyclohexanol] + CN1CCCC1=O
Settings | mass density [kg/m3] | speed of sound [m/s] | viscosity [mPa·s]
303.15 K, x2 = 0 | 941.32 | 1443.2 | 41.07
303.15 K, x2 = 0.1088 | 952.25 | 1462.3 | 36.8
303.15 K, x2 = 0.2155 | 962.68 | 1480.5 | 32.6
303.15 K, x2 = 0.3201 | 973.14 | 1495.7 | 28.48
303.15 K, x2 = 0.4228 | 983.38 | 1508.8 | 24.44
303.15 K, x2 = 0.5235 | 992.24 | 1520.5 | 20.47
303.15 K, x2 = 0.6223 | 999.61 | 1530.5 | 16.55
303.15 K, x2 = 0.7194 | 1005.72 | 1538.4 | 12.7
303.15 K, x2 = 0.8146 | 1011.65 | 1544.3 | 8.912
303.15 K, x2 = 0.9081 | 1017.47 | 1549.2 | 5.186
308.15 K, x2 = 0 | 937.23 | 1419.6 | 27.95
308.15 K, x2 = 0.1088 | 948.65 | 1440.8 | 25.09
308.15 K, x2 = 0.2155 | 959.48 | 1458.7 | 22.27
308.15 K, x2 = 0.3201 | 970.04 | 1473.4 | 19.52
308.15 K, x2 = 0.4228 | 979.96 | 1486.2 | 16.81
308.15 K, x2 = 0.5235 | 988.83 | 1497.5 | 14.15
308.15 K, x2 = 0.6223 | 996.39 | 1506.9 | 11.52
308.15 K, x2 = 0.7194 | 1002.69 | 1515.1 | 8.928
308.15 K, x2 = 0.8146 | 1008.39 | 1521.2 | 6.381
308.15 K, x2 = 0.9081 | 1014.23 | 1525.2 | 3.878
313.15 K, x2 = 0 | 933.48 | 1395.2 | 16.66
313.15 K, x2 = 0.1088 | 945.29 | 1418.3 | 15.01
313.15 K, x2 = 0.2155 | 956.55 | 1436.2 | 13.39
313.15 K, x2 = 0.3201 | 967.18 | 1450.8 | 11.81
313.15 K, x2 = 0.4228 | 976.72 | 1463.7 | 10.25
313.15 K, x2 = 0.5235 | 985.29 | 1475.1 | 8.714
313.15 K, x2 = 0.6223 | 992.87 | 1484.6 | 7.194
313.15 K, x2 = 0.7194 | 999.41 | 1492.4 | 5.69
313.15 K, x2 = 0.8146 | 1005.24 | 1498.2 | 4.211
313.15 K, x2 = 0.9081 | 1010.33 | 1500.6 | 2.76
318.15 K, x2 = 0 | 928.11 | 1370.8 | 8.888
318.15 K, x2 = 0.1088 | 940.43 | 1395.7 | 8.064
318.15 K, x2 = 0.2155 | 952.24 | 1413.7 | 7.26
318.15 K, x2 = 0.3201 | 963.21 | 1428.6 | 6.472
318.15 K, x2 = 0.4228 | 972.85 | 1441.9 | 5.694
318.15 K, x2 = 0.5235 | 981.32 | 1453.3 | 4.926
318.15 K, x2 = 0.6223 | 988.87 | 1462.8 | 4.163
318.15 K, x2 = 0.7194 | 995.46 | 1471.1 | 3.406
318.15 K, x2 = 0.8146 | 1001.47 | 1476.7 | 2.658
318.15 K, x2 = 0.9081 | 1006.79 | 1477.6 | 1.924

C1=CCCCC1 [cyclohexene] + CN1CCCC1=O
Settings | mass density [kg/m3] | speed of sound [m/s] | viscosity [mPa·s]
303.15 K, x2 = 0 | 801.81 | 1252.1 | 0.581
303.15 K, x2 = 0.1052 | 818.56 | 1267.5 | 0.612
303.15 K, x2 = 0.2091 | 834.84 | 1285.6 | 0.653
303.15 K, x2 = 0.3119 | 851.21 | 1307.1 | 0.698
303.15 K, x2 = 0.4135 | 868.75 | 1330.4 | 0.748
303.15 K, x2 = 0.514 | 889.05 | 1356.2 | 0.812
303.15 K, x2 = 0.6134 | 912.45 | 1384.5 | 0.897
303.15 K, x2 = 0.7116 | 938.12 | 1417.6 | 1.009
303.15 K, x2 = 0.8088 | 964.81 | 1456.8 | 1.148
303.15 K, x2 = 0.9049 | 992.11 | 1502.7 | 1.315
308.15 K, x2 = 0 | 797.25 | 1224.8 | 0.549
308.15 K, x2 = 0.1052 | 811.04 | 1240.5 | 0.579
308.15 K, x2 = 0.2091 | 827.32 | 1258.2 | 0.618
308.15 K, x2 = 0.3119 | 844.1 | 1278.6 | 0.663
308.15 K, x2 = 0.4135 | 862.03 | 1301.5 | 0.715
308.15 K, x2 = 0.514 | 882.54 | 1326.4 | 0.775
308.15 K, x2 = 0.6134 | 906.06 | 1355.1 | 0.853
308.15 K, x2 = 0.7116 | 931.63 | 1388.3 | 0.954
308.15 K, x2 = 0.8088 | 957.89 | 1426.8 | 1.081
308.15 K, x2 = 0.9049 | 985.56 | 1472.5 | 1.235
313.15 K, x2 = 0 | 792.61 | 1196.6 | 0.516
313.15 K, x2 = 0.1052 | 804.12 | 1212.4 | 0.551
313.15 K, x2 = 0.2091 | 819.12 | 1230.5 | 0.587
313.15 K, x2 = 0.3119 | 836.04 | 1250.4 | 0.63
313.15 K, x2 = 0.4135 | 854.81 | 1273.5 | 0.68
313.15 K, x2 = 0.514 | 875.73 | 1298.8 | 0.742
313.15 K, x2 = 0.6134 | 899.06 | 1327.1 | 0.818
313.15 K, x2 = 0.7116 | 924.14 | 1360.3 | 0.914
313.15 K, x2 = 0.8088 | 950.51 | 1398.7 | 1.031
313.15 K, x2 = 0.9049 | 979.38 | 1444.1 | 1.171
318.15 K, x2 = 0 | 788.02 | 1169.6 | 0.488
318.15 K, x2 = 0.1052 | 798.05 | 1185.2 | 0.522
318.15 K, x2 = 0.2091 | 813.05 | 1202.2 | 0.558
318.15 K, x2 = 0.3119 | 829.52 | 1222.2 | 0.597
318.15 K, x2 = 0.4135 | 847.61 | 1245.2 | 0.642
318.15 K, x2 = 0.514 | 868.15 | 1270.4 | 0.698
318.15 K, x2 = 0.6134 | 891.64 | 1298.6 | 0.771
318.15 K, x2 = 0.7116 | 917.16 | 1330.3 | 0.856
318.15 K, x2 = 0.8088 | 943.71 | 1369.2 | 0.956
318.15 K, x2 = 0.9049 | 972.27 | 1416.1 | 1.072
